Measurements taken from US20040235723A1, “Method of screening abc protein promoter/inhibitor” (priority 2001, published 2004).
Read-outs that look alike come from different tables or passages of the source.

Columns and labels:
[1] = biological target: T1, PDR5 transporter (Saccharomyces cerevisiae, UniProt P33302); test: Agar well diffusion growth inhibition assay for PDR5 transporter inhibition, KHW3+pYI-PDR5; assay type: cell-based; details: cycloheximide 0.04 μg/ml or cerulenin 0.4 μg/ml, without FK 506
T1 construct: expressed in transfected cells; host or cells: Saccharomyces cerevisiae KHW3 (Δsyr1/erg3::HIS3 Δpdr5::LEU2 Δsnq2::HIS3) carrying plasmid pYI-PDR5
T1 sequence (P33302 whole entry, the tested form may be a part): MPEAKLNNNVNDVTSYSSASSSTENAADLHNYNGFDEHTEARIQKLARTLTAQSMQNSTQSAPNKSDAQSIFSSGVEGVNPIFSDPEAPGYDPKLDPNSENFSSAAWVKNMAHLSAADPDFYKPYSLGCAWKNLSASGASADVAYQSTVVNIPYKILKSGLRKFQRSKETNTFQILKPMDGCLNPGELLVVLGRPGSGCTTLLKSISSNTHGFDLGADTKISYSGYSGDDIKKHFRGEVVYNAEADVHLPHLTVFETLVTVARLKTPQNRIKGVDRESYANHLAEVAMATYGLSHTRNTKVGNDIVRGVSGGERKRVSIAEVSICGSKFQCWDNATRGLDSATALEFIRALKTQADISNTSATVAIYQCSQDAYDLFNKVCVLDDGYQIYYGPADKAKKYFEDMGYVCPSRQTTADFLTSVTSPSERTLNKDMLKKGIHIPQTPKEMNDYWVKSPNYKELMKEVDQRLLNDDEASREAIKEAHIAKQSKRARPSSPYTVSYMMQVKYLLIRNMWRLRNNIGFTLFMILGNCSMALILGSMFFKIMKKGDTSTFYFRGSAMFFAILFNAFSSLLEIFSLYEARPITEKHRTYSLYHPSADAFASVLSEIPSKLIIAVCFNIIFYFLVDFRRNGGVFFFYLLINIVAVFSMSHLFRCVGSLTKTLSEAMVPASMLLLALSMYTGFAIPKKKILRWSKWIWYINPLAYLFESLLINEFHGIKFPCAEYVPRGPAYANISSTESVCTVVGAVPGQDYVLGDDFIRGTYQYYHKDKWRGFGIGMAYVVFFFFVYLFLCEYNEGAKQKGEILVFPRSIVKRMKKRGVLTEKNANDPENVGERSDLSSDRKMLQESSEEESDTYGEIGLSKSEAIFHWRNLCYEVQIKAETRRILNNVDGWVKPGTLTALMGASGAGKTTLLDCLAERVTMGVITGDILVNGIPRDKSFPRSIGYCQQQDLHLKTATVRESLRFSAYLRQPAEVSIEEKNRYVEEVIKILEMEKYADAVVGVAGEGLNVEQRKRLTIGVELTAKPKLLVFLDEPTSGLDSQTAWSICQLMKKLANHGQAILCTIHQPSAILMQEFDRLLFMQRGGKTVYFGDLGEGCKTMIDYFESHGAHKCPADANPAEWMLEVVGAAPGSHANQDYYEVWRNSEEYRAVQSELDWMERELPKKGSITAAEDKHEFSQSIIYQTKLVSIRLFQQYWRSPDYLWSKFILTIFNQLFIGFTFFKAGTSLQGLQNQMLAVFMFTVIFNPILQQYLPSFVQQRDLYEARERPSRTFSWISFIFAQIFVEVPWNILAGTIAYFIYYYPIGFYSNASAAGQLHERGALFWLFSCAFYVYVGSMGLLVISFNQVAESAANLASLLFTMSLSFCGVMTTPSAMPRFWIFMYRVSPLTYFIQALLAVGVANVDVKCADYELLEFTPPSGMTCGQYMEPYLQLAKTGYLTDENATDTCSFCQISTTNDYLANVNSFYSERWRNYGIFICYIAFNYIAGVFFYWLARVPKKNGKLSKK
Procedure: (§1) Yeast cells grown on an SD-uracil medium were suspended in a soft agar dissolved in 4 ml at 50° C. so as to make 1×10^5 cells/ml, mixed after addition of a drug such as cycloheximide or cerulenin if necessary and layered on an SD-uracil medium containing the drug of the same concentration. After the soft agar was solidified, a pore of 8 mm diameter was formed on a part of the soft agar and 50 μl of the test substance were poured thereinto. The plate was incubated at 32° C. for 48 hours and […] of growth inhibition ring around the well was measured whereupon activity of the test substance for inhibiting the discharge of cycloheximide and cerulenin by the PDR transporter was evaluated.
(§2) Unit for the growth inhibition activity was defined as follows. Thus, when a triple gene disruption strain KHW3 (Δsyr1/erg3::HIS3 Δpdr5::LEU2 Δsnq2::HIS3) was used and diameter of the inhibition ring measured by the above agar well diffusion method was plotted to logarithm of cycloheximide concentration where cycloheximide of 8-200 μg/ml was used as a standard substance, it was noted there was a linear relation as shown in FIG. 1. Growth inhibition activity showing an inhibition ring of 20 mm to KHW3 containing pYI was defined as 20 inhibition units per ml (IU/ml) and, using the above-mentioned standard curve of cycloheximide, inhibition units of test substances were calculated. […]

[2] = system: W303-1A + pYI; test: MIC on SD-uracil agar medium, wild strain W303-1A + pYI; assay type: cell-based; details: Saccharomyces cerevisiae, 48 h
[3] = system: KHW1 + pYI; test: MIC on SD-uracil agar medium, SYR1 gene disruption strain KHW1 + pYI; assay type: cell-based, Saccharomyces cerevisiae; details: for MIC: Saccharomyces cerevisiae, 48 h; for Increase of sensitivity of SYR1 gene disruption strain (KHW1+pYI) compared with wild strain (W303-1A+pYI): ratio of MIC values
Procedure: (§3) A double gene disruption strain KHW2 deficient in PDR5 (Δsyr1/erg3::HIS Δpdr5::LEU2), a double gene disruption strain KHW4 deficient in SNQ2 which is another drug-discharging ABC transporter of yeast (Δpdr5::LEU2 Δsnq2::HIS3) and a triple gene disruption strain […] deficient in PDR5 and SNQ2 (Δsyr1/erg3::HIS3 Δpdr5::LEU2 Δsnq2::HIS3) were prepared from an SYR1/ERG3 gene disruption strain KHW1 of Saccharomyces cerevisiae W303-1A (wild type) (Δsyr1/erg3::HIS3). Preparation of multiple gene disruption strains was carried out in such a manner that a host strain was transformed by a plasmid for disruption of gene where LEU2 gene or […] gene was a marker and the disrupted strain where each drug-resistant gene was disrupted by insertion of LEU2 or HIS3 gene was selected using recovery of requirement of leucine or histidine as an index. Each of the multiple gene disruption strains was confirmed by an increase in sensitivity to cycloheximide and cerulenin while gene disruption of PDR5 and SNQ2 was confirmed by a southern hybridization.

[4] = system: KHW3 + pYI; test: MIC on SD-uracil agar medium, triple gene disruption strain KHW3 + pYI; assay type: cell-based, Saccharomyces cerevisiae; details: for MIC: Saccharomyces cerevisiae, 48 h; for Increase of sensitivity of triple gene disruption strain KHW3 compared with wild strain: ratio of MIC values
Procedure: as §3

[5] = system: KHW3 + pYI-PDR5; test: MIC on SD-uracil agar medium, KHW3 + pYI-PDR5; assay type: cell-based; details: Saccharomyces cerevisiae, 48 h
Procedure: as §3

[6] = system: KHW4 + pYI; test: MIC on SD-uracil agar medium, KHW4 + pYI; assay type: cell-based; details: Saccharomyces cerevisiae, 48 h
Procedure: as §3

[7] = system: KHW4 + pYI-PDR5; test: MIC on SD-uracil agar medium, KHW4 + pYI-PDR5; assay type: cell-based; details: Saccharomyces cerevisiae, 48 h
Procedure: as §3

[8] = system: KHW3+pYI; test: Agar well diffusion growth inhibition assay, cytotoxicity check on KHW3+pYI; assay type: cell-based, Saccharomyces cerevisiae; details: FK 506 solution 12.5 μg/ml, 50 μl per well; 32° C., 48 hours; no drug in medium
Procedure: as §1, §2

C/C=C/C/C=C/CCC(=O)[C@H]1O[C@H]1C(N)=O [Cerulenin, cerulenin]
Growth inhibition of KHW3+pYI-PDR5 by sole drug in medium [1]: not inhibited | MIC ([2]; W303-1A + pYI (wild strain), 32° C., two days, read-out: MIC): 0.8 µg/mL | MIC ([3]; KHW1 + pYI, 32° C., two days, read-out: MIC): 0.4 µg/mL | Increase of sensitivity of SYR1 gene disruption strain (KHW1+pYI) compared with wild strain (W303-1A+pYI) [3]: 2 fold | MIC ([4]; KHW3 + pYI, 32° C., two days, read-out: MIC): 0.2 µg/mL | Increase of sensitivity of triple gene disruption strain KHW3 compared with wild strain [4]: 4 fold | MIC ([5]; KHW3 + pYI-PDR5, 32° C., two days, read-out: MIC): 0.8 µg/mL | MIC ([6]; KHW4 + pYI, 32° C., two days, read-out: MIC): 0.4 µg/mL | MIC [7]: 0.6 µg/mL

C[C@@H]1C[C@@H]([C@H](O)CC2CC(=O)NC(=O)C2)C(=O)[C@@H](C)C1 [Cycloheximide, cycloheximide]
Growth inhibition of KHW3+pYI-PDR5 by sole drug in medium [1]: not inhibited | MIC [2]: 0.16 µg/mL | MIC [3]: 0.04 µg/mL | Increase of sensitivity of SYR1 gene disruption strain (KHW1+pYI) compared with wild strain (W303-1A+pYI) [3]: 4 fold | MIC [4]: 0.01 µg/mL | Increase of sensitivity of triple gene disruption strain KHW3 compared with wild strain [4]: 16 fold | MIC [5]: 0.16 µg/mL | MIC [6]: 0.02 µg/mL | MIC [7]: > 0.32 µg/mL

C=CC[C@@H]1/C=C(\C)C[C@H](C)C[C@H](OC)[C@H]2O[C@@](O)(C(=O)C(=O)N3CCCC[C@H]3C(=O)O[C@H](/C(C)=C/[C@@H]3CC[C@@H](O)[C@H](OC)C3)[C@H](C)[C@@H](O)CC1=O)[C@H](C)C[C@@H]2OC [FK 506]
Growth inhibition of KHW3+pYI by test substance alone (cytotoxicity) [8]: did not inhibit the growth of KHW3+pYI
